In US20140205537A1, “LRRK2 INHIBITORS” (ZENOBIA THERAPEUTICS, INC., priority 2011, published 2014):

The compounds below were run against G2019S LRRK2 (Homo sapiens, UniProt Q5S007, G2019S) (assay: G2019S LRRK2 inhibition (Invitrogen SelectScreen / TR-FRET biochemical assay)). Details: @ 0.1 μM.
Design: The protein construct used in the assay is GST tagged 969-2527; GST; purchased Invitrogen
Protocol: IC50s were determined using Invitrogen's SelectScreen® Profiling Service for wild type and LRRK2 G2019S. The test compounds were screened in 1% DMSO (final) in the well.
a) % inhibition is measured at one concentration
b) a 10-point titration is run to ensure the kinase is inhibited within an expected IC50 range
Biochemical Assay Protocol:
Compound potency against wild-type and G2019S LRRK2 is measured via TR-FRET. The IC50, the amount of inhibitor required to inhibitor 50% of the protein under the given assay conditions, is determined by varying the amount of compound (500-0.001 uM) by serial dilution with 12-data points per compound, in duplicate. The substrate (Fluorescein-GAGRLGRDKYKTLRQIRQ) and ATP is fixed at 0.8 uM and 57 uM (KmATP), respectively. All assays are run in Corning low volume […] round bottomed plates. The assay is run in 50 mM Tris-HCl pH8.5, 10 mM MgCl2, 0.01% Brij-35, 1 mM EGTA, 2 mMDTT. The TR-FRET assay is an end-point assay where the reaction with protein, substrate, inhibitor and ATP is incubated for 1 hour at room temperature. The compound is pre-incubated with the protein and substrate prior to initiating the reaction with ATP. Phospho-transfer is detected using a Terbium labeled anti-pLRRKtide that binds to phosphorylated substrate creating FRET transfer when excited at 340 nm. Emissions signals are taken for terbium and FRET induced fluorescein at 495 nm and 520 nm, respectively, using a Biotek Synergy 2 spectrophotometer. The dose response is determined by plotting the emission ratio of 520/495 against the log of the inhibitor concentration. The maximum inhibition and non-inhibition controls is run on all plates. Staurosporine is used as the positive inhibition control and DMSO is used as the negative point control. A 12-point dose curve of Staurosporine is run as a dosing control. The IC50 is determined to be the inhibitor concentration at which 50% inhibition is achieved. The protein construct used in the assay is GST tagged 969-2527. The protein is commercially available from Invitrogen.
Alternatively, compounds of formulas (II), (I), (I-A), (I-B), (I-C), (I-D), (I-D-1), (I-D-2), (I-E), (I-F), (I-G), (I-H), (I-I), (I-I-1), (I-I-2), (I-J), (I-K), (I-L), (I-M), (I-N), (I-Z-1), (I-Z-2), (I-Z-2-a), (I-Z-2-b), (I-Z-2-c), (I-Z-2-d), (I-Z-3-a), (I-Z-3-b), (I-Z-3-c), or (I-Z-3-d) were tested using Invitrogen's SelectScreen® Profiling Service for LRRK2 G2019S.

G2019S LRRK2, sequence (Q5S007 969-2527 G2019S): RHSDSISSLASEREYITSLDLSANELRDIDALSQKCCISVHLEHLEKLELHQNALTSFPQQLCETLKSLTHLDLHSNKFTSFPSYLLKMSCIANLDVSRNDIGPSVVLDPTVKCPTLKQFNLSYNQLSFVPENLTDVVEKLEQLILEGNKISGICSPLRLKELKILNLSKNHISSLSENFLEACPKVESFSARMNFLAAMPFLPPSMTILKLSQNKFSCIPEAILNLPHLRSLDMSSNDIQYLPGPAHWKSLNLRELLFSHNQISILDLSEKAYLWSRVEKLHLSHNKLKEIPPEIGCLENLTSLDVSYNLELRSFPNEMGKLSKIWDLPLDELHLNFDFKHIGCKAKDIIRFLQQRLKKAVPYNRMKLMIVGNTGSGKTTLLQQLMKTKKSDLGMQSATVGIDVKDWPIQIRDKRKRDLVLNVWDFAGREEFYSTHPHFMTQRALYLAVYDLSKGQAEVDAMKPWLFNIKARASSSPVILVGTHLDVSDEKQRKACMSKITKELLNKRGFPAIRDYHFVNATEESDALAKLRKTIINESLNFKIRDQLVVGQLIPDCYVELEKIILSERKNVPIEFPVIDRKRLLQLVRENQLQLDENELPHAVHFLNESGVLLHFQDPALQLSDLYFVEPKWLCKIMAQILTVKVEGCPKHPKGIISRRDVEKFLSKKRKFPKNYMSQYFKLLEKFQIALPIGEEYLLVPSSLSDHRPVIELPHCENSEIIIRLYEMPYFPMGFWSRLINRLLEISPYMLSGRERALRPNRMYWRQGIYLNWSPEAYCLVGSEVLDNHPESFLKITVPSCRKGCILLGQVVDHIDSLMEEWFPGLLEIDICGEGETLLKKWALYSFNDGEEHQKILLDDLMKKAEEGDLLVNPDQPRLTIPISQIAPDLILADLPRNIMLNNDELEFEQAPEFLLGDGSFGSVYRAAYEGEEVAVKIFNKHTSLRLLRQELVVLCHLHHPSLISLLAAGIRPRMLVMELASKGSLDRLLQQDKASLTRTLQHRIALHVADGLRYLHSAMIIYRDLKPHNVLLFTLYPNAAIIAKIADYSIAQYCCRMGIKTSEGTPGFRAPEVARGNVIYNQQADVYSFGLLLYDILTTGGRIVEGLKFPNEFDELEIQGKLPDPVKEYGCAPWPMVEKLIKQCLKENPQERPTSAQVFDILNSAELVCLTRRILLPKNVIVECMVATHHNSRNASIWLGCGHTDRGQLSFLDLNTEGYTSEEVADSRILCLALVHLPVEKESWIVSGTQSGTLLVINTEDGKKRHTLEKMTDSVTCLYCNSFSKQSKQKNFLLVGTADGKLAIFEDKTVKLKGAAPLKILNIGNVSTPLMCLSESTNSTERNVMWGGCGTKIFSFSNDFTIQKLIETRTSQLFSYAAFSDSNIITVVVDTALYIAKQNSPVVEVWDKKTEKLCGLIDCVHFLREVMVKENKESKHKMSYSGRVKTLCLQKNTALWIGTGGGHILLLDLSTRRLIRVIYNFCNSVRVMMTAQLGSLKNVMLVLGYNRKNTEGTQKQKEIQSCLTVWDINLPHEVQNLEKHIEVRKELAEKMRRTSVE

Compound | inhibition at 0.1 µM [%]
Cc1cc(/C=C2\C(=O)Nc3ccccc32)[nH]n1 [Compound 1, (3Z)-3-[(3-methyl-1H-pyrazol-5-yl)methylene]indolin-2-one] | 22
O=C1Nc2ccccc2/C1=C\c1nc2ccccc2s1 [Compound 7, (3E)-3-(1,3-benzothiazol-2-ylmethylene)indolin-2-one] | -5

Same assay, conditions: @ 10 μM

Compound | inhibition at 10 µM [%]
O=C1Nc2ccccc2/C1=C/c1cc2cccnc2[nH]1 [Compound 5, (3Z)-3-(1H-pyrrolo[2,3-b]pyridin-2-ylmethylene)indolin-2-one] | 30
O=C1Nc2ccccc2/C1=C\c1nc2ccccc2o1 [Compound 9, (3E)-3-(1,3-benzoxazol-2-ylmethylene)indolin-2-one] | 11

Same assay, conditions: numeric value

Compound | IC50 [µM]
COCc1ncc(/C=C2\C(=O)Nc3ccc(OC)cc32)[nH]1 [Compound 17, (3Z)-5-methoxy-3-[[2-(methoxymethyl)-1H-imidazol-5-yl]methylene]indolin-2-one] | 0.0387
Cc1ncc(/C=C2\C(=O)Nc3ccc(Cl)cc32)[nH]1 [Compound 10, (3Z)-5-chloro-3-[(2-methyl-1H-imidazol-5-yl)methylene]indolin-2-one] | 0.0164
CCc1ncc(/C=C2\C(=O)Nc3ccc(OC)cc32)[nH]1 [Compound 16, (3Z)-3-[(2-ethyl-1H-imidazol-5-yl)methylene]-5-methoxy-indolin-2-one] | 0.0035
O=C1Nc2ccccc2/C1=C\c1cnc2ccccc2c1 [Compound 8, (3E)-3-(3-quinolylmethylene)indolin-2-one] | 0.872
COc1ccc2c(c1)/C(=C/c1cnc(C)[nH]1)C(=O)N2 [Compound 4, (3Z)-5-methoxy-3-[(2-methyl-1H-imidazol-5-yl)methylene]indolin-2-one] | 0.0069
Cc1ncc(/C=C2\C(=O)Nc3ccc(F)cc32)[nH]1 [Compound 3, (3Z)-5-fluoro-3-[(2-methyl-1H-imidazol-5-yl)methylene]indolin-2-one] | 0.038
Cc1ncc(/C=C2\C(=O)Nc3ccc(S(C)(=O)=O)cc32)[nH]1 [Compound 15, (3Z)-3-[(2-methyl-1H-imidazol-5-yl)methylene]-5-methylsulfonyl-indolin-2-one] | 0.125
CCOc1ccc2c(c1)/C(=C/c1cnc(C)[nH]1)C(=O)N2 [Compound 13, (3Z)-5-ethoxy-3-[(2-methyl-1H-imidazol-5-yl)methylene]indolin-2-one] | 0.0031
COc1ccc2c(c1)NC(=O)/C2=C\c1cnc(C)[nH]1 [Compound 6, (3Z)-6-methoxy-3-[(2-methyl-1H-imidazol-5-yl)methylene]indolin-2-one] | 0.127
Cc1ncc(/C=C2\C(=O)Nc3ccc(OC(F)(F)F)cc32)[nH]1 [Compound 11, (3Z)-3-[(2-methyl-1H-imidazol-5-yl)methylene]-5-(trifluoromethoxy)indolin-2-one] | 0.0412
Cc1cnc(/C=C2\C(=O)Nc3ccccc32)[nH]1 [Compound 2, (3Z)-3-[(5-methyl-1H-imidazol-2-yl)methylene]indolin-2-one] | 0.181
